Data set [1] can be described thus: pKa measurement of unformulated amine lipid (fluorescence, method of Jayaraman et al.). The format is physicochemical. Particulars: 100 μM in 0.1 M phosphate buffer pH 4.5-9.0. As for the experimental part:
The pKa of each amine lipid was determined according to the method in Jayaraman, et al. (Angewandte Chemie, 2012) with the following adaptations. […] Lipid was diluted to 100 μM in 0.1 M phosphate buffer (Boston Bioproducts) where the pH ranged from 4.5-9.0. Fluorescence intensity was measured using excitation and emission wavelengths of 321 nm and 448 nm.

Data set [2] is described as follows: LNP average particle size and polydispersity by dynamic light scattering (Malvern Zetasizer). It is filed as physicochemical. An excerpt:
The LNPs have a size of about 1 to about 1,000 nm, about 10 to about 500 nm, about 20 to about 500 nm, in a sub-embodiment about 50 to about 400 nm, in a sub-embodiment about 50 to about 300 nm, in a sub-embodiment about 50 to about 200 nm, and in a sub-embodiment about 50 to about 150 nm, and in another sub-embodiment about 60 to about 120 nm. Preferably, the LNPs have a size from about 60 nm to about 100 nm. The average sizes (diameters) of the fully formed LNP, may be measured by dynamic light scattering on a Malvern Zetasizer. The LNP sample is diluted in phosphate buffered saline (PBS) so that the count rate is approximately 200-400 kcps. The data is presented as a weighted average of the intensity measure.
The LNPs disclosed herein have a size (e.g. Z-average diameter) of about 1 to about 250 nm. In some embodiments, the LNPs have a size of about 10 to about 200 nm. In further embodiments, the LNPs have a size of about 20 to about 150 nm. In some embodiments, the LNPs have a size of about 50 to about 150 nm. In some embodiments, the LNPs have a size of about 50 to about 100 nm. In some embodiments, the LNPs have a size of about 50 to about 120 nm. In some embodiments, the LNPs have a size of about 60 to about 100 nm. In some embodiments, the LNPs have a size of about 75 to about 150 nm. In some embodiments, the LNPs have a size of about 75 to about 120 nm. In some embodiments, the LNPs have a size of about 75 to about 100 nm. Unless indicated otherwise, all sizes referred to herein are the average sizes (diameters) of the fully formed nanoparticles, as measured by dynamic light scattering on a Malvern Zetasizer. The nanoparticle sample is diluted in phosphate buffered saline (PBS) so that the count rate is approximately 200-400 kcps. The data is presented as a weighted-average of the intensity measure (Z-average diameter).
Dynamic Light Scattering (“DLS”) is used to characterize the polydispersity index (“pdi”) and size of the LNPs of the present disclosure. DLS measures the scattering of light that results from subjecting a sample to a light source. PDI, as determined from DLS measurements, represents the distribution of particle size (around the mean particle size) in a population, with a perfectly uniform population having a PDI of zero.
LNP compositions are analyzed for average particle size, polydispersity index (pdi), total RNA content, encapsulation efficiency of RNA, and zeta potential. LNP compositions may be further characterized by lipid analysis, AF4-MALS, NTA, and/or cryo-EM. Average particle size and polydispersity are measured by dynamic light scattering (DLS) using a Malvern Zetasizer DLS instrument. LNP samples were diluted with PBS buffer prior to being measured by DLS. Z-average diameter which is an intensity-based measurement of average particle size was reported along with number average diameter and pdi. A Malvern Zetasizer instrument is also used to measure the zeta potential of the LNP. Samples are diluted 1:17 (50 μL into 800 μL) in 0.1×PBS, pH 7.4 prior to measurement.

Data set [3] in a line: RNA encapsulation efficiency of LNP (Ribogreen fluorescence assay). It is filed as physicochemical. Particulars: N:P 6.0. As for the experimental part:
A fluorescence-based assay (Ribogreen®, ThermoFisher Scientific) is used to determine total RNA concentration and free RNA. Encapsulation efficiency is calculated as (Total RNA−Free RNA)/Total RNA. LNP samples are diluted appropriately with 1× TE buffer containing 0.2% Triton-X 100 to determine total RNA or 1× TE buffer to determine free RNA. Standard curves are prepared by utilizing the starting RNA solution used to make the compositions and diluted in 1× TE buffer+/−0.2% Triton-X 100. Diluted RiboGreen® dye (according to the manufacturer's instructions) is then added to each of the standards and samples and allowed to incubate for approximately 10 minutes at room temperature, in the absence of light. A SpectraMax M5 Microplate Reader (Molecular Devices) is used to read the samples with excitation, auto cutoff and emission wavelengths set to 488 nm, 515 nm, and 525 nm respectively. Total RNA and free RNA are determined from the appropriate standard curves.
Encapsulation efficiency is calculated as (Total RNA−Free RNA)/Total RNA. The same procedure may be used for determining the encapsulation efficiency of a DNA-based cargo component. For single-strand DNA Oligreen Dye may be used, and for double-strand DNA, Picogreen Dye.

Data set [4] has as its system TTR. The data set is described as follows: TTR editing in mouse liver by NGS after i.v. LNP delivery of Cas9 mRNA and sgRNA. The format is in vivo. Particulars: CD-1 female mice. As for the experimental part: Preparations of various LNP compositions were prepared with amine lipids. In assays for percent liver editing in mice, Cas9 mRNA and chemically modified sgRNA were formulated in LNPs, at either a 1:1 w/w ratio or a 1:2 w/w ratio. LNPs are formulated with a composition of a given ionizable lipid (e.g. an amine lipid), DSPC, cholesterol, and PEG-2k-DMG, with a 6.0 N:P ratio.
(§1) CD-1 female mice, ranging from 6-10 weeks of age were used in each study. Animals were weighed and grouped according to body weight for preparing dosing solutions based on group average weight. LNPs were dosed via the lateral tail vein in a volume of 0.2 mL per animal (approximately 10 mL per kilogram body weight). The animals were periodically observed post dose for adverse effects for at least 24 hours post dose. Animals were euthanized at 6 or 7 days by exsanguination via cardiac puncture under isoflurane anesthesia. Blood was collected into serum separator tubes or into tubes containing buffered sodium citrate for plasma as described herein. For studies involving in vivo editing, liver tissue was collected from each animal for DNA extraction and analysis.
Cohorts of mice were measured for liver editing by Next-Generation Sequencing (NGS).
In brief, to quantitatively determine the efficiency of editing at the target location in the genome, genomic DNA was isolated and deep sequencing was utilized to identify the presence of insertions and deletions introduced by gene editing.
PCR primers were designed around the target site (e.g., B2M), and the genomic area of interest was amplified. Additional PCR was performed according to the manufacturer's protocols (Illumina) to add the necessary chemistry for sequencing. The amplicons were sequenced on an Illumina MiSeq instrument. The reads were aligned to the […] after eliminating those having low quality scores. The resulting files containing the reads were mapped to the reference genome (BAM files), where reads that overlapped the target region of interest were selected and the number of wild type reads versus the number of reads which contain an insertion, substitution, or deletion was calculated.
The editing percentage (e.g., the “editing efficiency” or “percent editing”) is defined as the total number of sequence reads with insertions or deletions over the total number of sequence reads, including wild type.
CD-1 female mice were dosed i.v. at 0.1 mpk or 0.3 mpk. At 6 days post-dose, animals were sacrificed. For animals dosed with G282 targeting TTR, blood and the liver were collected and serum TTR and editing were measured. For animals dosed with G650 targeting B2M, liver was collected and editing was measured.

The test system of data set [5] is TTR. The data set is described as follows: Transthyretin (TTR) ELISA analysis of mouse serum after LNP dosing. It is filed as in vivo. Particulars: for inhibition in vivo at 0.03 mg/kg / response vs control in vivo at 0.1 mg/kg: Mus musculus, iv; for inhibition in vivo at 0.03 mg/kg: read-out: Serum TTR (% KD); for response vs control in vivo at 0.1 mg/kg: read-out: Serum TTR % TSS. As for the experimental part: as §1
CD-1 female mice were dosed i.v. at 0.1 mpk or 0.3 mpk. […] For animals dosed with G282 targeting TTR, blood and the liver were collected and serum TTR and editing were measured. For animals dosed with G650 targeting B2M, liver was collected and editing was measured.
Blood was collected and the serum was isolated as indicated. The total mouse TTR serum levels were determined using a Mouse Prealbumin (Transthyretin) ELISA Kit (Aviva Systems Biology, Cat. OKIA00111). Briefly, sera were serial diluted with kit sample diluent to a final dilution of 10,000-fold for 0.1 mpk dose and 2,500-fold for 0.3 mpk. This diluted sample was then added to the ELISA plates and the assay was then carried out according to directions.
On the technique in general: ELISA stands for enzyme-linked immunosorbent assay.

[6] abbreviates: Table 26, Example 64: LNP, G282 1:1.
[7] abbreviates: Table 26, Example 64: LNP, G282 (TTR) 1:1 w/w.
Where [8] appears, read: Example 64: Dose 0.03 mpk (table) i.v., 7 days post-dose, G282 1:1.
The mark [9] stands for this setting: 168 h, Example 64: Dose 0.03 mpk (table) i.v., 7 days post-dose, G282 1:1.
Setting [10] is: Table 16, Example 59: LNP, G282 1:1.
Where [11] appears, read: Example 59: 0.1 mpk i.v., 7 days post-dose, G282 1:1.
Setting [12] is: Table 18, Example 60: LNP, G502 1:2.
Where [13] appears, read: Example 60: 0.1 mpk i.v., 6 days post-dose, G502 1:2.

Molecules are shown by their SMILES. Like-named read-outs stand apart in the source and are kept apart here.

`CCCCCCCCCOC(=O)CCCCCCCN(CCCCCCC(OCCCCCCCC)OCCCCCCCC)CCCOC(=O)NC` [Compound 40, nonyl 8-((7,7-bis(octyloxy)heptyl)(3-((methylcarbamoyl)oxy)propyl)amino)octanoate]: the pKa (in general, the pH at which an ionisable group is half protonated) in data set [1] turned out to be 5.71. Further, in data set [2] (setting [6]), the “Num Ave Size (nm)” value is 64 nm, the PDI is on record as 0.06 and the “Z-Ave Size (nm)” value turned out to be 83 nm. Besides, the “Encapsulation (%)” value in data set [3] (setting [7]) was 96%. Moreover, the “Editing Mean % Indel” value in data set [4] (setting [8]) is 27.5%. In addition, the “Serum TTR” value in data set [5] (setting [8]) came to 417.0 µg/mL. Moreover, the inhibition in vivo at 0.03 mg/kg in data set [5] (setting [9]) was found to be 27.2%.

As for `CCCCCCCCCOC(=O)CCCCCCCN(CCO)CCCCCCC(OCCCCCCC)OCCCCCCC` [Compound 20, nonyl 8-((7,7-bis(heptyloxy)heptyl)(2-hydroxyethyl)amino)octanoate], in data set [1], the pKa was found to be 5.81. Also, in data set [2] (setting [10]), the “Num Ave Size (nm)” value was determined as 58.65 nm, the PDI stood at 0.102 and the “Z-Ave Size (nm)” value amounted to 84.49 nm. Besides, the “Encapsulation (%)” value in data set [3] (Table 16, Example 59: LNP, G282 (TTR) 1:1 w/w) worked out at 83%. Besides, the “Editing Mean % Indel” value in data set [4] (setting [11]) turned out to be 35.0%. Besides, in data set [5] (setting [11]), the “Serum TTR” value is 210 µg/mL. In addition, the response vs control in vivo at 0.1 mg/kg in data set [5] (168 h, Example 59: 0.1 mpk i.v., 7 days post-dose, G282 1:1) worked out at 23%.

On to `CCCCCCCCOC(CCCCCCCN(CCO)CCCCCCCCOC(=O)CCCCCCCC)OCCCCCCCC` [Compound 23, 8-((8,8-bis(octyloxy)octyl)(2-hydroxyethyl)amino)octyl nonanoate], for which the pKa in data set [1] turned out to be 6.04. For the same compound, in data set [2] (setting [12]), the “Num Ave Size (nm)” value was determined as 61.86 nm, the PDI was 0.054 and the “Z-Ave Size (nm)” value is on record as 79.04 nm. Moreover, the “Encapsulation (%)” value in data set [3] (Table 18, Example 60: LNP, G502 (TTR), sgRNA:Cas9 mRNA 1:2 w/w) came to 93%. Besides, the “Editing Mean % Indel” value in data set [4] (setting [13]) was 53.6%. For the same compound, the “Serum TTR” value in data set [5] (setting [13]) was 307 µg/mL. The response vs control in vivo at 0.1 mg/kg in data set [5] (144 h, Example 60: 0.1 mpk i.v., 6 days post-dose, G502 1:2) stood at 22%.

For the compound `CCCCCCCCCOC(=O)CCCCCCCN(CCCCCCC(OCCCCCCCC)OCCCCCCCC)CCNC(=O)OC` [Compound 44, nonyl 8-((7,7-bis(octyloxy)heptyl)(2-((methoxycarbonyl)amino)ethyl)amino)octanoate], in data set [1], the pKa was 5.62. Moreover, in data set [2] (setting [6]), the “Num Ave Size (nm)” value was 92 nm, the PDI was found to be 0.25 and the “Z-Ave Size (nm)” value was determined as 185 nm. Besides, in data set [3] (setting [7]), the “Encapsulation (%)” value is listed as 59%. In addition, the “Editing Mean % Indel” value in data set [4] (setting [8]) worked out at 7.9%. Also, the “Serum TTR” value in data set [5] (setting [8]) is 603.9 µg/mL. Besides, the inhibition in vivo at 0.03 mg/kg in data set [5] (setting [9]) was -5.5%.

In data set [1], `CCCCCCCCCOC(=O)CCCCCCCN(CCCCCCC(OCCCCCCCC)OCCCCCCCC)CCCNC(=O)NC` [Compound 46, nonyl 8-((7,7-bis(octyloxy)heptyl)(3-(3-methylureido)propyl)amino)octanoate] displayed a pKa of 7.64. Also, in data set [2] (setting [6]), the “Num Ave Size (nm)” value amounted to 86 nm, the PDI amounted to 0.03 and the “Z-Ave Size (nm)” value is 104 nm. In data set [3] (setting [7]), the “Encapsulation (%)” value is reported as 98%. For the same compound, the “Editing Mean % Indel” value in data set [4] (setting [8]) was found to be 8.7%. Further, the “Serum TTR” value in data set [5] (setting [8]) was 514.6 µg/mL. Moreover, the inhibition in vivo at 0.03 mg/kg in data set [5] (setting [9]) came to 10.1%.

The record behind these values is patent US20260225997A1, “IONIZABLE AMINE LIPIDS” (Intellia Therapeutics, Inc., priority 2018, published 2026).
